pIC50: −log10 of the molar value. Numbered stars: 1 amine (or outer) side, 2 acyl side, 3 side chain; on linkers, the order of the positions; unused ones are H or OH. Bridge positions count the residues as written; N and C are the ends. Square brackets hold non-standard residues; d marks the D form. Peptide text beside a SMILES is read from it. ξ: configuration not given here. X3 = O=C(/C=N/OCCCCCCOc1cc(C[*:2])cc(C[*:3])c1)[*:1]; X9 = NC(=O)[C@H](CS[*:1])CC(=O)[C@H](CCC(=O)O)N[*:2]; aIle = CC[C@@H](C)[C@H](N)C(=O)O; tBuAla = CC(C)(C)C[C@H](N)C(=O)O; Thr(3ξ) = CC(O)[C@H](N)C(=O)O; Nle = CCCC[C@H](N)C(=O)O
Each compound was assayed against T1, rh-integrin α4β7/LPAM-1 (Homo sapiens, UniProt P13612+P26010) (assay: α4β7-MadCAM Competition ELISA (Example 4)). Conditions: Table 3 Representative compounds; inhibition of MAdCAM binding to coated α4β7; read-out: IC50.
T1 sequence (P13612 34-977 limits assumed): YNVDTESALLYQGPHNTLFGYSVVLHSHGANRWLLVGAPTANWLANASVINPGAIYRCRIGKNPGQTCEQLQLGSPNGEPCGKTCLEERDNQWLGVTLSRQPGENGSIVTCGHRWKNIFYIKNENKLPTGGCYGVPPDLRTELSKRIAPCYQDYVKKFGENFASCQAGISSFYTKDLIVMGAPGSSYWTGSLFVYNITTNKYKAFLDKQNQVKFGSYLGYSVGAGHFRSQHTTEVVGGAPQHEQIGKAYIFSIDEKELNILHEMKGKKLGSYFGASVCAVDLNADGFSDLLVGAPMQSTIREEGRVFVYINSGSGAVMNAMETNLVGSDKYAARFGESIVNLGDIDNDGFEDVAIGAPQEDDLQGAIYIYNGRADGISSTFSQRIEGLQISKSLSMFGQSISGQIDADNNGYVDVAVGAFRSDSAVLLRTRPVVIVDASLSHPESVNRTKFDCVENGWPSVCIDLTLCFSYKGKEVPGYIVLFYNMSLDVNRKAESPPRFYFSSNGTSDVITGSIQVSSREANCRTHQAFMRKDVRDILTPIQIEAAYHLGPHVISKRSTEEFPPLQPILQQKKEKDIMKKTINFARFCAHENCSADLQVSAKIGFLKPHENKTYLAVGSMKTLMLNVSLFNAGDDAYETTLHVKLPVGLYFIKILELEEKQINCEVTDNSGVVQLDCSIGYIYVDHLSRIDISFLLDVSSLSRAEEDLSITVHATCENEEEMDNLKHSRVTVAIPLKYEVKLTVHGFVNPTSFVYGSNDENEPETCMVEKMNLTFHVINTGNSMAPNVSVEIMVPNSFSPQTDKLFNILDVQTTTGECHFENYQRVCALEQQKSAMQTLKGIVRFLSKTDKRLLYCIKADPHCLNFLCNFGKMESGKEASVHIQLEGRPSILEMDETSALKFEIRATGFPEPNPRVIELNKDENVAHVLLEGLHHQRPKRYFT
T1 sequence (P26010 20-723 limits assumed): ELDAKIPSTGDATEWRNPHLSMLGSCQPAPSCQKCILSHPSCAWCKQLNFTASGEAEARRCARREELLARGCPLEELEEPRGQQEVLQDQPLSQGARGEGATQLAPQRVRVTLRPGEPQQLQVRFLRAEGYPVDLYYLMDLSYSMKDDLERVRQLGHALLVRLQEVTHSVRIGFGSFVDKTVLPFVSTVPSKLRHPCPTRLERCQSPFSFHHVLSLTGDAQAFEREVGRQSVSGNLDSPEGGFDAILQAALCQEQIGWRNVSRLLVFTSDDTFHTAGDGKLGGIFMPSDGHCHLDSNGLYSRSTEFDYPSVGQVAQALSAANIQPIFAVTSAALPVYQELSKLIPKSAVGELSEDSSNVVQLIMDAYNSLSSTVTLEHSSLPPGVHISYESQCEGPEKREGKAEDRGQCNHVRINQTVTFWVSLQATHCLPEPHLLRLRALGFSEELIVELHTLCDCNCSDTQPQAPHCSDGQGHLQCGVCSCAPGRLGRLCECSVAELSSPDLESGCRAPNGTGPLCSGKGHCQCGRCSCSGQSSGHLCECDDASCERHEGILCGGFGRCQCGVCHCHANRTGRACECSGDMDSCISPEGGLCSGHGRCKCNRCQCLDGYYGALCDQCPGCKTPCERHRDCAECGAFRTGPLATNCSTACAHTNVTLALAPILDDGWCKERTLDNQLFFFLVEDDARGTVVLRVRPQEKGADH
Assay type: binding
Experimental: After washing with wash buffer, 200 μL assay buffer was added to each well and incubated for one hour at 28° C. After another wash with wash buffer, 100 μL of a MAdCAM and peptide mixture in assay buffer was added to each well and incubated for one hour at 28° C., followed by washing with wash buffer.
In the case of CC[C@H](C)[C@@H]1NC(=O)[C@H](CC(=O)O)NC(=O)[C@H](CCSC)NC(=O)[C@@H]2CCCN2C(=O)[C@@H](NC(=O)[C@H](CCCNC(=N)N)NC(=O)[C@H](CO)NC(C)=O)CSSC[C@@H](C(N)=O)NC(=O)[C@H](CCC(=O)O)NC(=O)CNC(=O)[C@H](C)NC1=O [compound 36] (Ac-SRCPMDIAGEC-NH2; disulfide 3-11), the pIC50 was 6.03. In the case of CC[C@H](C)[C@@H]1NC(=O)[C@H](CC(=O)O)NC(=O)[C@H](CC(C)C)NC(=O)[C@@H]2CCCN2C(=O)[C@@H]2CSCc3cc(cc(c3)OCCCCCCO/N=C/C(=O)N[C@@H](CCCCN)C(=O)N2)CSC[C@@H](C(N)=O)NC(=O)[C@H](CCC(=O)O)NC(=O)[C@H](Cc2ccc(O)cc2)NC(=O)[C@@H]2CCCN2C1=O [compound 11] (KCPLDIPYEC-NH2; linker N-2-10 via X3), the pIC50 was 6.70. With CCCC[C@@H]1NC(=O)[C@@H]2CCCN2C(=O)[C@@H]2CSCc3cc(cc(c3)OCCCCCCO/N=C/C(=O)N[C@@H](CCCNC(=N)N)C(=O)N2)CSC[C@@H](C(N)=O)NC(=O)[C@H](CCC(=O)O)NC(=O)[C@H](Cc2ccc(O)cc2)NC(=O)[C@H](Cc2c[nH]c3ccccc23)NC(=O)[C@H](C(C)C)NC(=O)[C@H](CC(=O)O)NC1=O [compound 6] (RCP[Nle]DVWYEC-NH2; linker N-2-10 via X3) the pIC50 was 6.89. With CC(C)C[C@@H]1NC(=O)[C@H](CO)NC(=O)[C@H](CCCNC(=N)N)NC(=O)[C@@H]2CSCC(=O)N[C@@H](CCCNC(=N)N)C(=O)N[C@@H](CSSC[C@@H](C(=O)N[C@@H](Cc3c[nH]c4ccccc34)C(=O)N[C@@H](CCC(N)=O)C(N)=O)NC(=O)[C@H](C(C)C)NC(=O)[C@@H](CC(=O)O)NC1=O)C(=O)N[C@@H](CO)C(=O)N[C@@H](CC(=O)O)C(=O)N[C@@H]([C@@H](C)O)C(=O)N[C@@H](CC(C)C)C(=O)N2 (racemic) [compound 87] the pIC50 was 4.15. Compound CC(C)C[C@@H]1NC(=O)/C=N/OCCCCCCOc2cc3cc(c2)CSC[C@H](NC1=O)C(=O)N[C@@H](Cc1ccc(O)cc1)C(=O)N[C@@H](CCC(=O)O)C(=O)N[C@@H](Cc1c[nH]c2ccccc12)C(=O)N[C@H](CCC(=O)O)C(=O)N[C@@H](Cc1cnc[nH]1)C(=O)N[C@@H](C)C(=O)N[C@H](C(N)=O)CSC3 [compound 63, TSL6- SLCYEWEHAC] (LCYEW[dE]HAC-NH2; linker N-2-9 via X3) has a pIC50 of 5.10. CC(C)C[C@@H]1NC(=O)[C@@H]2CCCN2C(=O)[C@@H]2CSCc3cc(cc(c3)OCCCCCCO/N=C/C(=O)N[C@@H](CCCCN)C(=O)N2)CSC[C@@H](C(N)=O)NC(=O)[C@H](CCC(=O)O)NC(=O)[C@H]([C@@H](C)O)NC(=O)[C@@H]2CCCN2C(=O)[C@H]([C@@H](C)O)NC(=O)[C@H](CC(=O)O)NC1=O [compound 34, TSL6- SKCPLDTPTEC] (KCPLDTPTEC-NH2; linker N-2-10 via X3) gave a pIC50 of 6.13. Work on CSCC[C@@H]1NC(=O)[C@@H]2CCCN2C(=O)[C@@H]2CSCc3cc(cc(c3)OCCCCCCO/N=C/C(=O)N[C@@H](CCCNC(=N)N)C(=O)N2)CSC[C@@H](C(N)=O)NC(=O)[C@H](CCC(=O)O)NC(=O)CNC(=O)[C@H](C)NC(=O)[C@H](C(C)C)NC(=O)[C@H](CC(=O)O)NC1=O [compound 23, TSL6- SRCPMDVAGEC] (RCPMDVAGEC-NH2; linker N-2-10 via X3) yielded a pIC50 of 6.29. CC(C)C[C@@H]1NC(=O)[C@@H]2CCCN2C(=O)[C@@H]2CSCc3cc(cc(c3)OCCCCCCO/N=C/C(=O)N[C@@H](CCCCN)C(=O)N2)CSC[C@@H](C(N)=O)NC(=O)[C@H](CCC(=O)O)NC(=O)[C@H](Cc2ccc(O)cc2)NC(=O)[C@@H]2CCCN2C(=O)[C@H](C)NC(=O)[C@H](CC(=O)O)NC1=O [compound 42, TSL6- SKCPLDAPYEC] (KCPLDAPYEC-NH2; linker N-2-10 via X3) was tested, and the pIC50 was 5.85. CCCC[C@@H]1NC(=O)[C@H](CO)NC(=O)[C@@H]2CSSC[C@@H](C(=O)N[C@@H](Cc3c[nH]c4ccccc34)C(=O)N[C@@H](CCC(N)=O)C(N)=O)NC(=O)[C@H](C(C)C)NC(=O)[C@@H](CC(=O)O)NC(=O)[C@H](CC(C)C)NC(=O)[C@H](CO)NC(=O)[C@H](CCCNC(=N)N)NC(=O)[C@H](CSCC(=O)N[C@@H](CCCNC(=N)N)C(=O)N2)NC(=O)[C@H]([C@@H](C)CC)NC(=O)[C@H](CC(=O)O)NC1=O [compound 70, Disulfide- RCS{Nle}DICRS LDVCWQ] ({CH2CO}-RCS[Nle]DICRSL[dD]VCWQ-NH2; disulfide 2-13; thioether N-7) gave a pIC50 of 4.71. CC(C)[C@@H]1NC(=O)[C@H](CC(=O)O)NC(=O)[C@H](CC(C)(C)C)NC(=O)[C@@H]2CCCN2C(=O)[C@@H]2CSCc3cc(cc(c3)OCCCCCCO/N=C/C(=O)N[C@@H](CCCNC(=N)N)C(=O)N2)CSC[C@@H](C(N)=O)NC(=O)[C@H](CCC(=O)O)NC(=O)CNC(=O)[C@H](Cc2c[nH]c3ccccc23)NC1=O [compound 58, TSL6- SRCP{tBuAla} DVWGEC] (RCP[tBuAla]DVWGEC-NH2; linker N-2-10 via X3) gave a pIC50 of 5.40. CC(C)C[C@@H]1NC(=O)[C@@H]2CCCN2C(=O)[C@@H](NC(=O)[C@H](CCCCN)NC(=O)[C@@H](N)CO)CSSC[C@@H](C(N)=O)CC(=O)[C@H](CCC(=O)O)NC(=O)[C@H](Cc2ccc(O)cc2)NC(=O)[C@@H]2CCCN2C(=O)[C@H](C(C)O)NC(=O)[C@H](CC(=O)O)NC1=O (stereo partly drawn) [compound 25] (H-SKCPLD[Thr(3ξ)]PY; linker 3-C via X9) showed a pIC50 of 6.26. C[C@@H](O)[C@@H]1NC(=O)[C@H](CC(=O)O)NC(=O)[C@@H]2CCCN2C(=O)[C@H](Cc2ccc(O)cc2)NC(=O)[C@@H]2CSCc3cc(cc(c3)OCCCCCCO/N=C/C(=O)N[C@@H](CC(=O)O)C(=O)N2)CSC[C@@H](C(N)=O)NC(=O)[C@H](Cc2cnc[nH]2)NC(=O)[C@H](Cc2ccc(O)cc2)NC1=O [compound 88, TSL6- SDCYPDTYHC] (DCYPDTYHC-NH2; linker N-2-9 via X3) was tested, and the pIC50 was 4.14. For CC[C@@H](C)[C@@H]1NC(=O)/C=N/OCCCCCCOc2cc3cc(c2)CSC[C@H](NC1=O)C(=O)N[C@@H](CCCNC(=N)N)C(=O)N[C@@H]([C@@H](C)O)C(=O)N[C@@H](CC(=O)O)C(=O)N[C@@H](C(C)C)C(=O)N1CCC[C@H]1C(=O)N[C@@H]([C@@H](C)CC)C(=O)N[C@@H](CC(=O)O)C(=O)N[C@H](C(N)=O)CSC3 [compound 66, TSL6- SICRTDVPIDC] ([aIle]CRTDVPIDC-NH2; linker N-2-10 via X3), the pIC50 was 4.84. CCCC[C@@H]1NC(=O)[C@H](CO)NC(=O)[C@H](CCCNC(=N)N)NC(=O)[C@@H]2CSCC(=O)N[C@@H](CCCNC(=N)N)C(=O)N[C@@H](CSSC[C@@H](C(=O)N[C@@H](Cc3c[nH]c4ccccc34)C(=O)N[C@@H](CCC(N)=O)C(N)=O)NC(=O)[C@H](CC(C)C)NC(=O)[C@@H](CC(=O)O)NC1=O)C(=O)N[C@@H](CO)C(=O)N[C@@H](CC(=O)O)C(=O)N[C@@H]([C@@H](C)O)C(=O)N[C@@H](CC(C)C)C(=O)N2 [compound 68] ({CH2CO}-RCSDTLCRS[Nle][dD]LCWQ-NH2; disulfide 2-13; thioether N-7) showed a pIC50 of 4.80. CC[C@H](C)[C@@H]1NC(=O)[C@H](CC(=O)O)NC(=O)[C@H](CCSC)NC(=O)[C@@H]2CCCN2C(=O)C(NC(=O)[C@H](CCCNC(=N)N)NC(=O)[C@H](CO)NC(C)=O)CSSC[C@@H](C(=O)N[C@@H](CCCCNC(=O)COCC(=O)NCCCC[C@H](NC(=O)[C@@H]2CSSC[C@H](NC(=O)[C@H](CCCNC(=N)N)NC(=O)[C@H](CO)NC(C)=O)C(=O)N3CCC[C@H]3C(=O)N[C@@H](CCSC)C(=O)N[C@@H](CC(=O)O)C(=O)N[C@@H]([C@@H](C)CC)C(=O)N[C@@H](C)C(=O)NCC(=O)N[C@@H](CCC(=O)O)C(=O)N2)C(N)=O)C(N)=O)NC(=O)[C@H](CCC(=O)O)NC(=O)CNC(=O)[C@H](C)NC1=O (stereo in doubt) [compound 32] gave a pIC50 of 6.14.
